Measurements published in US7968577B2 (Bristol-Myers Squibb Company, priority 2006, dated 2011).

Each compound was assayed against T1, human full-length glucocorticoid receptor (Homo sapiens, UniProt P04150) (assay: Glucocorticoid Receptor Binding Assay (II), fluorescence polarization competitor kit (Fluormone GS1)). Details: GR Binding Assay (II).
T1 construct: recombinantly expressed human full-length glucocorticoid receptor; purchased PanVera Co., Madison, Wis; P2816
T1 sequence (P04150 1-777): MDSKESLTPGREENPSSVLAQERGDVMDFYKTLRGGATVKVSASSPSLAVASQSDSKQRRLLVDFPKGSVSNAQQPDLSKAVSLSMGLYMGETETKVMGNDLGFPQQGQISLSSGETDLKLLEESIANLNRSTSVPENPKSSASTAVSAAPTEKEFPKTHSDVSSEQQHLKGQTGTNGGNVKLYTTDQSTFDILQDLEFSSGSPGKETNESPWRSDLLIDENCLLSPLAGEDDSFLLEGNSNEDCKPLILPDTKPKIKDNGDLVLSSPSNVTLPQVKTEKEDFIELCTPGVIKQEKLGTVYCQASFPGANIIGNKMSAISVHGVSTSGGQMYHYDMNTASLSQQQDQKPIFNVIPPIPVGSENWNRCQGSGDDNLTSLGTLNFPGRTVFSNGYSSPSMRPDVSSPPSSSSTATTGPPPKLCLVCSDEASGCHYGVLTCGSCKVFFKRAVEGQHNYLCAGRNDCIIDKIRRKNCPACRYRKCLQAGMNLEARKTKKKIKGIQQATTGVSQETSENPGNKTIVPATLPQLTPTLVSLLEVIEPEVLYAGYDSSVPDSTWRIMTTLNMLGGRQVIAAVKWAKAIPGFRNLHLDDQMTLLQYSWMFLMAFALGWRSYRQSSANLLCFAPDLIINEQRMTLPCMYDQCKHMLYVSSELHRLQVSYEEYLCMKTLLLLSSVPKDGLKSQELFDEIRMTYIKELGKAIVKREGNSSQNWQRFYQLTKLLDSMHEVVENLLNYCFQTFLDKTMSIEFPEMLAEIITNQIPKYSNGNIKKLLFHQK
Method: Glucocorticoid Receptor Binding Assay (II)^b
In order to measure the binding of compounds on the glucocorticoid receptor a commercially available kit was used (Glucocorticoid receptor competitor assay kit, PanVera Co., Madison, Wis., P2816). Briefly, a cell lysate containing recombinantly expressed human full-length glucocorticoid receptor was mixed with a fluorescently labeled glucocorticoid (1 nM Fluormone GS1) in the presence or absence of test compound. After one hour at room temperature, the fluorescence polarization (FP) of the samples were measured.

Compound	Ki
Cc1csc(NC(=O)C(C)(C)[C@H](c2ccccc2)c2ccc(O)cc2)n1 [Example 330, (3R)-3-(4-hydroxyphenyl)-2,2-dimethyl-N-(4-methyl-1,3-thiazol-2-yl)-3-phenylpropanamide]	169 nM
Cc1cnc(NC(=O)C(C)(C)[C@@H](c2ccccc2)c2ccc(O)cc2)s1 [Example 331, (3S)-3-(4-hydroxyphenyl)-2,2-dimethyl-N-(5-methyl-1,3-thiazol-2-yl)-3-phenylpropanamide]	18.8 nM
Cc1cnc(NC(=O)C(C)(C)[C@H](c2ccccc2)c2ccc(O)cc2)s1 [Example 332, (3R)-3-(4-hydroxyphenyl)-2,2-dimethyl-N-(5-methyl-1,3-thiazol-2-yl)-3-phenylpropanamide]	204 nM
CC(C)(C(=O)NC1CCC1)[C@@H](c1ccccc1)c1ccc(O)cc1 [Example 333, (3S)-N-cyclobutyl-3-(4-hydroxyphenyl)-2,2-dimethyl-3-phenylpropanamide]	392 nM
CC(C)(C(=O)NC1CCC1)[C@H](c1ccccc1)c1ccc(O)cc1 [Example 334, (3R)-N-cyclobutyl-3-(4-hydroxyphenyl)-2,2-dimethyl-3-phenylpropanamide]	395 nM
CC(C)(C(=O)NC1CCCC1)[C@H](c1ccccc1)c1ccc(O)cc1 [Example 336, (3R)-N-cyclopentyl-3-(4-hydroxyphenyl)-2,2-dimethyl-3-phenylpropanamide]	504 nM
CC(C)(C(=O)N1CCOCC1)[C@@H](c1ccccc1)c1ccc(O)cc1 [Example 337, 4-((1S)-2,2-dimethyl-3-(4-morpholinyl)-3-oxo-1-phenylpropyl)phenol]	2090 nM
CCOC(=O)c1csc(NC(=O)C(C)(C)[C@@H](c2ccccc2)c2ccc(O)cc2)n1 [Example 338, ethyl 2-(((3S)-3-(4-hydroxyphenyl)-2,2-dimethyl-3-phenylpropanoyl)amino)-1,3-thiazole-4-carboxylate]	11.8 nM
CC(C)(C(=O)Nc1ccccn1)[C@@H](c1ccccc1)c1ccc(O)cc1 [Example 341, (3S)-3-(4-hydroxyphenyl)-2,2-dimethyl-3-phenyl-N-2-pyridinylpropanamide]	175 nM
CC(C)(C(=O)Nc1ncns1)[C@@H](c1ccccc1)c1ccc(O)cc1 [Example 342, (3S)-3-(4-hydroxyphenyl)-2,2-dimethyl-3-phenyl-N-1,2,4-thiadiazol-5-ylpropanamide]	8.1 nM
CC(C)(C(=O)Nc1nncs1)C(c1ccccc1)c1ccc(O)cc1F (centres unmarked) [Example 344, 3-(2-fluoro-4-hydroxyphenyl)-2,2-dimethyl-3-phenyl-N-1,3,4-thiadiazol-2-ylpropanamide]	43.2 nM
CC(C)(C(=O)Nc1nccs1)C(c1ccccc1)c1ccc(O)c(F)c1 (centres unmarked) [Example 346, 3-(3-fluoro-4-hydroxyphenyl)-2,2-dimethyl-3-phenyl-N-1,3-thiazol-2-ylpropanamide]	16 nM
CC(C)(C(=O)Nc1nccs1)[C@H](c1ccccc1)c1ccc(O)c(C#N)c1 [Example 358]	22.9 nM
CC(=O)Oc1ccc([C@@H](c2ccccc2)C(C)(C)C(=O)Nc2nccs2)cc1 [Example 360, 4-((1R)-2,2-Dimethyl-3-oxo-1-phenyl-3-(1,3-thiazol-2-ylamino)propyl)phenyl acetate]	21.7 nM
CC(C)(C(=O)Nc1nccs1)[C@H](c1ccccc1)c1ccc(OC(=O)c2ccco2)cc1 [Example 363, 4-((1R)-2,2-dimethyl-3-oxo-1-phenyl-3-(1,3-thiazol-2-ylamino)propyl)phenyl 2-furancarboxylate]	47 nM
CC(C)(C(=O)Nc1nccs1)[C@H](c1ccccc1)c1ccc(OC(=O)c2ccoc2)cc1 [Example 365, 4-((1R)-2,2-dimethyl-3-oxo-1-phenyl-3-(1,3-thiazol-2-ylamino)propyl)phenyl 3-furancarboxylate]	31.9 nM
CC(C)(C(=O)Nc1nccs1)[C@H](c1ccccc1)c1ccc(OC(=O)C2CCCO2)cc1 (stereo partly drawn) [Example 367, 4-((1R)-2,2-dimethyl-3-oxo-1-phenyl-3-(1,3-thiazol-2-ylamino)propyl)phenyl tetrahydro-2-furancarboxylate]	26.9 nM
CC(=O)c1ccc(C(c2ccccc2)C(C)(C)C(=O)Nc2nccs2)cc1 (centres unmarked) [Example 368, 3-(4-Acetylphenyl)-2,2-dimethyl-3-phenyl-N-1,3-thiazol-2-ylpropanamide]	19.2 nM
CC(=O)c1cccc(C(c2ccccc2)C(C)(C)C(=O)Nc2nccs2)c1 (centres unmarked) [Example 370, 3-(3-acetylphenyl)-2,2-dimethyl-3-phenyl-N-1,3-thiazol-2-ylpropanamide]	60.9 nM
CC(O)c1ccc(C(c2ccccc2)C(C)(C)C(=O)Nc2nccs2)cc1 (centres unmarked) [Example 371, 3-(4-(1-Hydroxyethyl)phenyl)-2,2-dimethyl-3-phenyl-N-1,3-thiazol-2-ylpropanamide]	38.1 nM
CC(O)c1ccc(C(c2ccccc2)C(C)(C)C(=O)Nc2nncs2)cc1 (centres unmarked) [Example 372]	96.1 nM
CC(O)c1cccc(C(c2ccccc2)C(C)(C)C(=O)Nc2nccs2)c1 (centres unmarked) [Example 373, 3-(3-(1-hydroxyethyl)phenyl)-2,2-dimethyl-3-phenyl-N-1,3-thiazol-2-ylpropanamide]	320 nM
CC(C)(C(=O)Nc1nccs1)C(c1ccccc1)c1ccc(-c2ccncc2)cc1 (centres unmarked) [Example 375, 2,2-dimethyl-3-phenyl-3-(4-(4-pyridinyl)phenyl)-N-1,3-thiazol-2-ylpropanamide]	11 nM
CC(C)(C(=O)Nc1nccs1)C(c1ccccc1)c1ccc(-c2ccoc2)cc1 (centres unmarked) [Example 376, 3-(4-(3-furanyl)phenyl)-2,2-dimethyl-3-phenyl-N-1,3-thiazol-2-ylpropanamide]	15.8 nM

These compounds were tested against T2, human glucocorticoid receptor (Homo sapiens, UniProt P04150) (assay: Glucocorticoid Receptor Binding Assay (I), fluorescence polarization competitor kit (Fluormone GS Red)). Details: GR Binding Assay (I).
T2 construct: purified human recombinant full-length glucocorticoid receptor; purchased Invitrogen Part #2893
T2 sequence (P04150 1-777): T1 sequence (P04150 1-777)
Method: Glucocorticoid Receptor Binding Assay (I)^a
In order to assess the affinity of test compounds for the human glucocorticoid receptor, a commercially available kit was used (Glucocorticoid Receptor Competitor Assay Kit, Invitrogen Part #2893). Briefly, purified human recombinant full-length glucocorticoid receptor (2 nM) was mixed with fluorescently labeled glucocorticoid (1 nM Fluormone GS Red) in the presence or absence of test compound. After two hour incubation at room temperature in the dark, the fluorescence polarization (FP) of the samples was measured. […] Test compounds were analyzed in the concentration range from 8.5 E-05 μM to 5 μM.

Compound	Ki
COc1ccc(C(c2ccccc2)C(C)(C)C(=O)Nc2nncs2)cc1C (single isomer, unassigned) [Example 294, 2,2-dimethyl-3-(3-methyl-4-(methyloxy)phenyl)-3-phenyl-N-1,3,4-thiadiazol-2-ylpropanamide]	9.22 nM
COc1ccc(C(c2ccccc2)C(C)(C)C(=O)Nc2nncs2)cc1C (single isomer, unassigned) [Example 295, 2,2-dimethyl-3-(3-methyl-4-(methyloxy)phenyl)-3-phenyl-N-1,3,4-thiadiazol-2-ylpropanamide]	13.9 nM
CC(C)(C)c1csc(NC(=O)C2(C(c3ccccc3)c3ccccc3)CCCC2)n1 [Example 151, N-(4-(1,1-dimethylethyl)-1,3-thiazol-2-yl)-1-(diphenylmethyl) cyclopentanecarboxamide]	1150 nM
O=C(Nc1nccs1)C1(C(c2ccccc2)c2ccccc2)CCC1 [Example 153, 1-(diphenylmethyl)-N-1,3-thiazol-2-ylcyclobutanecarboxamide]	23.2 nM
O=C(Nc1nccs1)C1(C(c2ccccc2)c2ccccc2)CCCCC1 [Example 156, 1-(diphenylmethyl)-N-1,3-thiazol-2-ylcyclohexanecarboxamide]	36.9 nM
CCC(CC)(C(=O)Nc1nccs1)C(c1ccccc1)c1ccccc1 [Example 159, 2-(diphenylmethyl)-2-ethyl-N-1,3-thiaozl-2-ylbutanamide]	101 nM
CCC(C)(C(=O)Nc1nccs1)C(c1ccccc1)c1ccccc1 (centres unmarked) [Example 176, 2-(diphenylmethyl)-2-methyl-N-1,3-thiazol-2-ylbutanamide]	54 nM
COc1ccc([C@@H](c2ccccc2)C(C)(C)C(=O)Nc2nncs2)cc1Br [Example 292, (3R)-3-(3-bromo-4-(methyloxy)phenyl)-2,2-dimethyl-3-phenyl-N-1,3,4-thiadiazol-2-ylpropanamide]	24.5 nM
COc1ccc(C(c2ccccc2)C(C)(C)C(=O)Nc2nncs2)cc1C (centres unmarked) [Example 293, 2,2-dimethyl-3-(3-methyl-4-(methyloxy)phenyl)-3-phenyl-N-1,3,4-thiadiazol-2-ylpropanamide]	9.85 nM
CC(C)(C(=O)Nc1nccs1)C(c1ccccc1)c1ccc(Cc2ccccc2)cc1 (centres unmarked) [Example 319, 2,2-dimethyl-3-phenyl-3-(4-(phenylmethyl)phenyl)-N-1,3-thiazol-2-ylpropanamide]	386 nM
CC(C)(C(=O)Nc1nncs1)C(c1ccccc1)c1ccc(Cc2ccccc2)cc1 (centres unmarked) [Example 320, 2,2-dimethyl-3-phenyl-3-(4-(phenylmethyl)phenyl)-N-1,3,4-thiadiazol-2-ylpropanamide]	187 nM
